# Measurements reported in PMC5120204, “Identification of an orally active small-molecule PTHR1 agonist for the treatment of hypoparathyroidism” (Nature Communications, 2016).
# “Also recorded” adds a separate entry of the source.
# How the values were obtained:
# [1] = tested on: 12 class B GPCRs (CGRP, calcitonin, CRF1, CRF2α, GLP-1, GLP-2, glucagon, secretin, GHRH, PAC1, VPAC1 and VPAC2); assay: Selectivity assay (Cerep), agonist and antagonist cAMP assays; assay type: cell-based; conditions: at 1 or 10 μmol l^−1; activity defined as >25% of positive control
# Procedure: Selectivity assays against class B GPCRs were performed by Cerep (France). Agonistic and antagonistic effects of PCO371 against a panel of 12 class B GPCRs (CGRP, calcitonin, CRF1, CRF2α, GLP-1, GLP-2, glucagon, secretin, GHRH, PAC1, VPAC1 and VPAC2) were examined at PCO371 concentrations of 1 and 10 μmol l^−1. The following cell lines were used; T47D (calcitonin), βTC6 (GLP-1), HT-29 (VPAC1, VPAC2), CHO (CGRP, CRF1, GLP-2, Glucagon, Secretin, GHRH and PAC1, recombinant), and HEK-293 (CRF-2, recombinant). Their antagonistic activity was measured in the presence of the control agonists shown in Supplementary Table 1. In agonist and antagonist experiments, intracellular cAMP levels were determined with the HTRF detection system. EC50 and IC50 values of control agonists or antagonists were calculated by non-linear regression analysis of the concentration-response curves generated with mean replicate values using Hill equation curve-fitting using the formula: equation (2).
# Y=response, A=left asymptote of the curve, D=right asymptote of the curve, C=compound concentration, C50=EC50 or IC50, nH=slope factor. Agonistic activity of PCO371 at 1 or 10 μmol l^−1 was calculated as a per cent of the control agonist response; intracellular cAMP accumulation by PCO371 × 100/intracellular cAMP accumulation by the control agonist at the EC50 concentration. […]
# [2] = target: T1, PTHR1 (Rattus norvegicus, UniProt P25961); assay: cAMP washout assay in UMR-106 cells; assay type: cell-based; conditions: washout 0–120 min
# T1 construct: UMR-106 cells, which natively express rat PTHR1; endogenous in cells; host or cells: UMR-106 (ATCC)
# T1 sequence (P25961 27-591): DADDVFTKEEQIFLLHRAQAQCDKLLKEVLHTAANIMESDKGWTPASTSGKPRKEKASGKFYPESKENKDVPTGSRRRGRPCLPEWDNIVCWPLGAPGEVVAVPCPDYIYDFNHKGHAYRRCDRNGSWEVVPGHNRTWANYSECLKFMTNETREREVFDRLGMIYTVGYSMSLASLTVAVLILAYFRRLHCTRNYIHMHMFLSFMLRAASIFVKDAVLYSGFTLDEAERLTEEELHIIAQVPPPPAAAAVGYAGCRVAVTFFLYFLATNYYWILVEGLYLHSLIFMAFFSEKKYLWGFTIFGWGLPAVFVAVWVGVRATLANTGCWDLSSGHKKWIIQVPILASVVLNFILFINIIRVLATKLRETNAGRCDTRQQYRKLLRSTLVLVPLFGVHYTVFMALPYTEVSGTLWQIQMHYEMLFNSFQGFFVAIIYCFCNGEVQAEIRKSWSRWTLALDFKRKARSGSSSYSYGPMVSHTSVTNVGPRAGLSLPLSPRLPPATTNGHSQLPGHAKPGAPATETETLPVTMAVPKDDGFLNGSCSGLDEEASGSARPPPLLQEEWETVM
# Procedure: The duration of cAMP signalling capacity of PCO371, hPTH(1–34) and LA-PTH (synthesized at American Peptide Company, Inc.) was assessed in a time-course experiment in UMR-106 cells (cAMP washout assay). The cells were treated with assay medium (2 mg m l^−1 BSA, and 2 mmol l^−1 HEPES/McCoy's 5A medium, Life Technologies) alone (basal) or with ligands (1 μmol l^−1 for hPTH(1–34), 0.1 μmol l^−1 for LA-PTH and 0.1 mmol l^−1 for PCO371) in the assay medium for 10 min, washed (t=0), incubated for 0, 30, 60 and 120 min (washout phase), and then further incubated for 5 min in the assay medium containing IBMX (2 mmol l^−1). Incubations were terminated with 50 mmol l^−1 HCl. The cAMP concentrations were determined using a cAMP EIA kit (GE Healthcare).
# [3] = tested on: UMR-106 cells; assay: Gene expression assay in UMR-106 cells; assay type: cell-based, rat
# Procedure: UMR-106 cells (ATCC) were incubated with DMEM with 0.2% BSA for 4 h and were then treated with hPTH(1–34) or PCO371 for 1 or 6 h. At 1 or 6 h after adding test compounds, total RNA was isolated by using an RNeasy Plus Kit (Qiagen). cDNA was transcribed from the isolated total RNA by using TaqMan Reverse Transcription Reagents (Thermo Fisher Scientific). mRNA levels were quantified by a real-time PCR system (Thermo Fisher Scientific). The relative quantity of transcripts was calculated by using the comparative threshold cycle (Ct) method and normalized to 18S ribosomal RNA as an internal control. The following cDNA-specific primers and probes were used: Fos (encoded by Fos, Rn02396759_m1), osteocalcin (encoded by Bglap, Rn00566386_g1), receptor activator of nuclear factor-κB ligand (RANKL, encoded by Tnfsf11, Rn00589289_m1), osteoprotegerin (osteoprotegerin, encoded by Tnfrsf11b, Rn00563499_m1) and sclerostin (encoded by Sost, Rn00577971_m1).
# [4] = tested on: TPTX rats; assay: Single administration study in TPTX rats; assay type: in vivo, rat; conditions: TPTX rats, single oral administration
# Procedure: TPTX was carried out in 6-week-old female Crl:CD(SD) rats (Charles River Laboratories). Rats with serum Ca levels of <8.0 mg dl^−1 at 5 days after surgery were used for the experiment. The rats were divided into six groups, each with a similar mean value of serum Ca levels and body weight. TPTX rats were treated once orally (vehicle or PCO371 at 1.3, 6.5 or 33 mg kg^−1) or subcutaneously (vehicle or hPTH(1–84) (Chugai Pharmaceutical) at 9 nmol kg^−1). Six TPTX rats were assigned to each dose group. The sample size was determined based on previous experiments and a published study with hPTHs and LA-PTH in our laboratories[24] (n=5–6). Vehicle for PCO371 was the same as in the OVX rat study, and phosphate-citrate buffer (pH 6.0) was used as vehicle for hPTH(1–84). Under isoflurane anaesthesia, jugular vein blood was collected immediately before and at 1, 2, 6, 10 and 24 h after administrations to measure serum Ca (o-CPC method, Wako Pure Chemical Industries) and Pi levels (xanthine oxidase method, Wako Pure Chemical Industries).
# In another experiment, the effects of a single treatment with PCO371 or hPTH(1–34) on serum Ca and Pi in TPTX rats (6-week-old) were evaluated at the dose of 3, 9.5 or 30 mg kg^−1 (PCO371, p.o.) or 9 nmol kg^−1 (hPTH(1–34), s.c.) according to the same method as that described above.
structure (smiles),measurement,setting,value
"Cc1cc(N2C(=O)NC(=O)C2(C)C)cc(C)c1CCS(=O)(=O)N1CCC2(CC1)N=C(c1ccc(OC(F)(F)F)cc1)NC2=O [PCO371, 1-{3,5-dimethyl-4-[2-({4-oxo-2-[4-(trifluoromethoxy)phenyl]-1,3,8-triazaspiro[4.5]dec-1-en-8-yl}sulfonyl)ethyl]phenyl}-5,5-dimethylimidazolidine-2,4-dione]",agonistic and antagonistic activities against 12 class B GPCRs,[1],did not show agonistic or antagonistic activity; also recorded: did not exhibit activity
same,duration of cAMP-signalling response,[2],much shorter than that of hPTH(1–34)
same,"expression of mRNAs for Fos, osteocalcin and RANKL",[3]; 1 h (Fos) or 6 h,dose-dependently increased
same,expression of mRNAs for osteoprotegerin and sclerostin,[3]; 6 h,dose-dependently decreased
same,serum Ca,[4],dose-dependently increased
same,serum Pi,[4],decreased
